Data from patent US20040198791A1 (priority 2001, published 2004).

molecular target: T1, human NPY Y5 receptors (Homo sapiens, UniProt Q15761); experiment: Inhibition of [125I]-PYY binding to HEK-293 cells expressing human NPY Y5 receptors; details: HEK-293 cells stably expressing human NPY Y5 receptors, 25° C., 120 minutes
T1 construct: expressed in transfected cells; host or cells: HEK-293
T1 sequence (Q15761 1-445): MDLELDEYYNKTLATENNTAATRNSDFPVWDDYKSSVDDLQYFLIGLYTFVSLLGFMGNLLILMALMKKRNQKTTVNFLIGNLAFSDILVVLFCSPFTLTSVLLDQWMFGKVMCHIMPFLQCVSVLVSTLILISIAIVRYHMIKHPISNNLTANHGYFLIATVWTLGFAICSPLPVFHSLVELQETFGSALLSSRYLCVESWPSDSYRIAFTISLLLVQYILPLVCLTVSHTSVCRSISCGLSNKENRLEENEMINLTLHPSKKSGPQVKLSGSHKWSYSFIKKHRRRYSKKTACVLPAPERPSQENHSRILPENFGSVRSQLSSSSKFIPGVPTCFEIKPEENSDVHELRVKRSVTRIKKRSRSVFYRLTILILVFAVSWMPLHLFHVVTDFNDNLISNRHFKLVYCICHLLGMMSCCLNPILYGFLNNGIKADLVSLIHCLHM
Description: Effects on binding ability of PYY(peptide YY) to HEK(human embryo kidneys)-293 cells transducted with human NPY(neuropeptide Y) Y5 receptors
HEK-293 cells, which stably manifest human NPY Y5 receptors, were incubated at 25° C. for 120 minutes in the […] of test compounds in an assay medium containing 0.1 mM PMSF (phenylmethylsulfonyl fluoride), 0.05% bacitracin, 0.1% BSA (bovine serum albumin) and 25mM Tris HCl (pH 7.4). The non-specific binding was measured in the presence of […] non-labelled PYY. The reaction was terminated by rapidly filtering with Wattmann GF/C glass fiber filter with using the cell harvester. After the glass fiber filter was washed with 150 mM sodium chloride and 25 mM Tris HCl buffer solution (pH 7.4) containing 0.01% BSA, radioactivity of the […] was measured by using the γ-counter. The IC50 value of the test compound was determined by the inhibition of [^125I]-PYY binding obtained by the test compound at various concentrations. The test compound is represented with the Example number in which the compound was obtained.

First: Fc1ccc2c(c1)-c1[nH]c(-c3ccncc3)nc1CCC2 [10 (2), 9-Fluoro-2-(pyridin-4-yl)-5,6-dihydro-4H-1,3-diazabenzo[e]azulene]
Second: Cc1ccc2c(c1)-c1[nH]c(-c3ccncc3)nc1CCC2 [8 (14), 2-(Pyridin-4-yl)-5,6-dihydro-9-methyl-4H-1,3-diazabenzo[e]azulene]
The IC50 of the first is 2-fold higher: 13 nM for the first, 6.4 nM for the second. The second is the more potent here.

Going from COc1ccc2c(c1)-c1c(nc(-c3ccncc3)n1O)CCC2 [Example 1, 9-methoxy-2-(pyridin-4-yl)-5,6-dihydro-4H-1,3-diazabenzo[e]azulen-1-ol] to COc1ccc2c(c1)-c1c(nc(-c3ccccc3)n1O)CCC2 [2 (1), 9-Methoxy-2-phenyl-5,6-dihydro-4H-1,3-diazabenzo[e]azulen-1-ol], the IC50 falls from 73 nM to 24 nM (3-fold). The second is the more potent here.

First: COc1ccc2c(c1)-c1nc(-c3ccncc3)[nH]c1CCC2 [Example 7, 9-methoxy-2-(pyridin-4-yl)-3,4,5,6-tetrahydro-1,3-diazabenzo[e]azulene]
Second: COc1ccc2c(c1)-c1nc(-c3cccnc3)[nH]c1CCC2 [8 (2), 9-Methoxy-2-(pyridin-3-yl)-3,4,5,6-tetrahydro-1,3-diazabenzo[e]azulene]
The IC50 of the first is 2.1-fold higher: 13 nM for the first, 6.3 nM for the second.

First: c1ccc2c(c1)CCCc1[nH]c(-c3c[nH]cn3)nc1-2 [8 (11)]
Second: COc1ccc2c(c1)-c1nc(-c3ccccn3)[nH]c1CCC2 [8 (3), 9-Methoxy-2-(pyridin-2-yl)-3,4,5,6-tetrahydro-1,3-diazabenzo[e]azulene]
The IC50 of the first is 4.6-fold higher: 550 nM for the first, 120 nM for the second. The second is the more potent here.

First: COc1ccc2c(c1)-c1nc(-c3ccccc3)[nH]c1CCC2 [8 (1), 9-Methoxy-2-phenyl-3,4,5,6-tetrahydro-1,3-diazabenzo[e]azulene]
Second: COc1ccc2c(c1)-c1nc(-c3ccccc3)[nH]c1CC2 [8 (4), 8-Methoxy-2-phenyl-4,5-dihydronaphtho[1,2-d]imidazole]
The IC50 of the first is 2-fold lower: 25 nM for the first, 51 nM for the second.

Going from Clc1ccc2c(c1)-c1[nH]c(-c3ccccc3)nc1CCC2 [Example 11, 9-chloro-2-phenyl-5,6-dihydro-4H-1,3-diazabenzo[e]azulene] to c1ccc(-c2nc3c([nH]2)-c2ccccc2CCC3)cc1 [8 (5), 2-Phenyl-5,6-dihydro-4H-1,3-diazabenzo[e]azulene], the IC50 rises from 1.7 nM to 5.8 nM (3.4-fold).

Cc1ccc2c(c1)-c1[nH]c(-c3ccccn3)nc1CCC2 [8 (12), 2-(Pyridin-2-yl)-5,6-dihydro-9-methyl-4H-1,3-diazabenzo[e]azulene] and Fc1ccc2c(c1)-c1[nH]c(-c3ccccn3)nc1CCC2 [Example 9, 9-fluoro-2-(pyridin-2-yl)-5,6-dihydro-4H-1,3-diazabenzo[e]azulene] are within 1.5-fold of each other in IC50: 32 nM for the first, 46 nM for the second.

Going from Fc1ccc2c(c1)-c1nc(-c3cccnc3)[nH]c1CCC2 [10 (1), 9-Fluoro-2-(pyridin-3-yl)-5,6-dihydro-4H-1,3-diazabenzo[e]azulene] to Cc1ccc2c(c1)-c1[nH]c(-c3cccnc3)nc1CCC2 [8 (13), 2-(Pyridin-3-yl)-5,6-dihydro-9-methyl-4H-1,3-diazabenzo[e]azulene], the IC50 falls from 6.9 nM to 2.3 nM (3-fold). The second is the more potent here.

Compared with c1ccc2c(c1)CCCc1nc(-c3ccncc3)[nH]c1-2 [8 (8), 2-(Pyridin-4-yl)-5,6-dihydro-4H-1,3-diazabenzo[e]azulene], c1cncc(-c2nc3c([nH]2)-c2ccccc2CCC3)c1 [8 (7), 2-(Pyridin-3-yl)-5,6-dihydro-4H-1,3-diazabenzo[e]azulene] is 2.7-fold lower in IC50: 20 nM for the first, 7.3 nM for the second. The second is the more potent here.

First: c1ccc(-c2nc3c([nH]2)CCOc2ccccc2-3)cc1 [8 (15), 2-Phenyl-4,5-dihydro-3H[l]benzoxepino[4,5-d]imidazole]
Second: c1ccc2c(c1)CCCc1nc(-c3ccc4c(c3)OCCO4)[nH]c1-2 [8 (9), 2-(1,4-Benzodioxan-6-yl)-5,6-dihydro-4H-1,3-diazabenzo[e]azulene]
The IC50 of the first is 3-fold lower: 61 nM for the first, 180 nM for the second.

Going from CC(C)n1nc(-c2nc3c([nH]2)-c2ccccc2CCC3)ccc1=O [8 (10), 2-(1-Isopropyl-6-oxo-1,6-dihydropyridazin-3-yl)-5,6-dihydro-4H-1,3-diazabenzo[e]azulene] to c1ccc(-c2nc3c([nH]2)-c2ccccc2CCC3)nc1 [8 (6), 2-(Pyridin-2-yl)-5,6-dihydro-4H-1,3-diazabenzo[e]azulene], the IC50 falls from 260 nM to 130 nM (2-fold).
